# Test results from US8362267B2, “Benzophenone thiazole derivatives useful for inhibiting formation of microtubule and method for producing the same” (Chong Kun Dang Pharmaceutical Corp., priority 2008, dated 2013).
# Where two headings read alike, the source gives them in different places.
# Tests used:
# [1] = test system: CX-1 (human colon adenocarcinoma); assay: In vivo antitumor activity, human xenograft, colorectal cancer model CX-1; parameters: species or system BALB/c nude mice; details: for weight loss / animal death / pharmaceutical effects as compared to the reference drug, AC7700: CX-1 xenograft model; for weight loss: as compared to the compound 516, in words; for animal death / pharmaceutical effects as compared to the reference drug, AC7700: in words; for Body weight change (%) / IR (%) / Number of dead animals: q4d x 4 (i.p.)
# Protocol: (§1) BALB/c male nude mice (4 weeks) available from Central Lab Animal Inc. were used for human xenograft experiments. Sterile food and potable water were freely provided to the mice in an isolated sterile cage and the temperature of the cage was maintained at 23±0.5° C.
# (§2) In vivo human xenograft experiments were performed in accordance with the following procedure. In vitro proliferated human-derived cancer cell lines (CX-1, HCT-15, A549, MKN45, calu-6) were subcutaneously injected into the abdominal region of BALB/c nude mice and were thus proliferated in vivo. After 20 to 25 days, the mice were sacrificed by cervical spine dislocation, solid cancer cells proliferated in the mice were sterilely separated and fresh cancer cells from which connective or necrotic tissues or skin were removed were collected. The fragments of tumor were transplanted to the BALB/c nude mice.
# (§3) The mice in which cancer cells were proliferated to a predetermined size were collected on the 15th to 30th day after human-derived cancer models were transplanted into the BALB/c nude mice and then used for the tests. For each experimental group, the drug was injected at a dose of 0.1 mL per 10 g of mouse in accordance with a dose schedule, when tumor cells were grown to a size of 100 to 200 mm^3 after tumor transplantation.
# (§4) After administration, antitumor activity was evaluated based upon an antitumor inhibition rate (IR %) of tumor growth, obtained by comparing a tumor volume measured on the final day with a tumor volume of a control group. As the reference drug, AC7700 (Sanofi-Aventis), which is currently undergoing phase III clinical trials, was used. Tumor size=(short diameter)^2×(long diameter)/2 I.R.(%)=[1−(average tumor size of drug-administered group)/(average tumor size of control group)]×100
# [2] = Measurement of solubility in water (HPLC); format: physicochemical; details: thermodynamic from solid; in distilled water, 25° C.
# Protocol: The compounds of the present invention were developed to reduce toxicity caused by deposition on organ due to low solubility of compound 516, as confirmed by animal tests. Considering this, solubility of the present compounds in water was thus measured.
# The compound was dissolved in acetonitrile to a concentration of 1 mg/mL and the solution was diluted with a mobile phase to a concentration of 5, 12.5, 25, 50 or 100 μg/ml.
# 1. The compound was added to distilled water such that the concentration of each specimen was adjusted to 10 mg/mL, stirred in a thermostat stirrer (25° C., 200 rpm) for about 7 days, filtered and diluted with a mobile phase to an optimal concentration.
# 2. The compound was added to distilled water such that the concentration of each specimen was adjusted to 10 mg/mL, sonicated for 30 minutes, stirred for 5 minutes, filtered, sonicated for 30 minutes again and diluted with a mobile phase to an optimal concentration.
# Column temperature: 25° C.
# Column: Kromasil C8 (4.6×150 mm, 5 μm)
# Mobile phase: 20 mM ammonium acetate, pH 5.0/ACN (60/40)
# [3] = test system: calu-6 (human lung carcinoma, #30056); assay: In vivo antitumor activity, human xenograft, non-small cell lung cancer model calu-6
# Protocol: as §1
# (§5) A human cancer model, CX-1 (human colon adenocarcinoma), for xenograft experiment was obtained from the German Cancer Research Center (DKFZ), and HCT-15 (human colorectal adenocarcinoma, CCL-225) and A549 (human lung carcinoma, CCL-185) were obtained from ATCC (American Type Culture Collection, Rockville, Md., USA). Human tumor cells, MKN45 (human gastric adenocarcinoma, #80103) and calu-6 (human lung carcinoma, #30056) were obtained from KCLB (Korean Cell Line. Bank).
# (§6) CX-1 was incubated in a 95% air incubator (37° C., 5% CO2) using a DMEM (Dulbecco's Modified Eagle's Medium, Gibco) supplemented with 10% heat-inactivated fetal bovine serum (Gibco) and 1% Antibiotics-Antimycotics (Gibco). Other cell lines were incubated in a 95% air incubator (37° C., 5% CO2) using an RPM1640 (Gibco BRL) medium supplemented with 10% heat-inactivated fetal bovine serum (Gibco) and 1% Antibiotics-Antimycotics (Gibco).
# as §2, §3, §4
# [4] = test system: MKN45 (human gastric adenocarcinoma, #80103); assay: In vivo antitumor activity, human xenograft, stomach cancer model MKN45
# Protocol: as §1, §5, §6, §2, §3, §4
# [5] = test system: HCT-15 (human colorectal adenocarcinoma, CCL-225); format: in vivo; details: HCT-15 xenograft, q4d x 4 (i.p.)
# Protocol: as §1, §5, §6, §2, §3, §4
# [6] = test system: A549 (human lung carcinoma, CCL-185); assay: In vivo antitumor activity, human xenograft, lung cancer model A549
# Protocol: as §1, §5, §6, §2, §3, §4
# [7] = Table 4, CX-1 xenograft, 5 mg/kg
# [8] = Table 4, CX-1 xenograft, 10 mg/kg
# [9] = calu-6 xenograft, 80 mg/kg, q4d x 4 (i.p.)
# [10] = MKN45 xenograft, 80 mg/kg, q4d x 4 (i.p.)
# [11] = Table 3, CX-1 xenograft, 100 mg/kg
# [12] = Table 4, CX-1 xenograft, 100 mg/kg
# [13] = A549 xenograft, 80 mg/kg, q4d x 4 (i.p.)
# [14] = Table 3, CX-1 xenograft, 5 mg/kg
# [15] = Table 4, CX-1 xenograft, 20 mg/kg
# [16] = calu-6 xenograft, 5 mg/kg, q4d x 4 (i.p.)
# [17] = calu-6 xenograft, 7.5 mg/kg, q4d x 4 (i.p.)
# [18] = calu-6 xenograft, 10 mg/kg, q4d x 4 (i.p.)
# [19] = MKN45 xenograft, 5 mg/kg, q4d x 4 (i.p.)
# [20] = MKN45 xenograft, 7.5 mg/kg, q4d x 4 (i.p.)
# [21] = MKN45 xenograft, 10 mg/kg, q4d x 4 (i.p.)
# [22] = A549 xenograft, 5 mg/kg, q4d x 4 (i.p.)
# [23] = A549 xenograft, 7.5 mg/kg, q4d x 4 (i.p.)
# [24] = A549 xenograft, 10 mg/kg, q4d x 4 (i.p.)
smiles,measurement,setting,value
COc1cc(C(=O)c2ccc(-c3csc(NC(=O)[C@@H](N)Cc4ccccc4)n3)cc2-n2cncn2)cc(OC)c1OC [Compound 625],weight loss,[1],no weight loss
same,animal death,[1],no animal death
same,"pharmaceutical effects as compared to the reference drug, AC7700",[1],significantly superior pharmaceutical effects
same,Body weight change (%),[1]; [7],+28.9%
same,IR (%),[1]; [7],21%
same,Body weight change (%),[1]; [8],+24.5%
same,IR (%),[1]; [8],43%
same,solubility,[2],11 mg/mL
"COc1ccc(/C=C\c2cc(OC)c(OC)c(OC)c2)cc1NC(=O)[C@@H](N)CO [AC7700, reference compound]",Body weight change (%),[3]; [9],+22.4%
same,IR (%),[3]; [9],80%
same,Number of dead animals,[3]; [9],0/6
same,Body weight change (%),[4]; [10],+7.8%
same,IR (%),[4]; [10],55%
same,Number of dead animals,[4]; [10],0/6
same,Body weight change (%),[5]; 80 mg/kg,+5.5%
same,IR (%),[5]; 80 mg/kg,66%
same,Number of dead animals,[5]; 80 mg/kg,1/6
same,Body weight change (%),[1]; [11],+13.2%
same,Number of dead animals,[1]; [11],2/6
same,IR (%),"[1]; Table 3, CX-1 xenograft, 100 mg/kg, tumor volume on final day vs control",48%
same,Body weight change (%),[1]; [12],+22.8%
same,IR (%),[1]; [12],34%
same,Number of dead animals,[1]; [12],0/6
same,Body weight change (%),[6]; [13],+2.6%
same,IR (%),[6]; [13],64%
same,Number of dead animals,[6]; [13],0/7
"COc1cc(C(=O)c2ccc(-c3csc(N)n3)cc2-n2cncn2)cc(OC)c1OC [Compound 516, {4-(2-aminothiazol-4-yl)-2-(1H-1,2,4-triazol-1-yl)phenyl}(3,4,5-trimethoxyphenyl)methanone, reference compound]",animal death,[1],two animals died
same,"pharmaceutical effects as compared to the reference drug, AC7700",[1],significantly superior pharmaceutical effects
same,Body weight change (%),[1]; [14],+15.2%
same,Number of dead animals,[1]; [14],2/6
same,IR (%),"[1]; Table 3, CX-1 xenograft, 5 mg/kg, tumor volume on final day vs control",36%
same,solubility,[2],0.5 mg/mL
"COc1cc(C(=O)c2ccc(-c3csc(NC(=O)CN(C)C)n3)cc2-n2cncn2)cc(OC)c1OC [Compound 631, N-(4-(3-(1H-1,2,4-triazol-1-yl)-4-(3,4,5-trimethoxybenzoyl)phenyl)thiazol-2-yl)-2-(dimethylamino)acetamide]",weight loss,[1],no weight loss
same,animal death,[1],no animal death
same,"pharmaceutical effects as compared to the reference drug, AC7700",[1],significantly superior pharmaceutical effects
same,Body weight change (%),[1]; [7],+24.8%
same,IR (%),[1]; [7],23%
same,Body weight change (%),[1]; [8],+26.7%
same,IR (%),[1]; [8],20%
same,Body weight change (%),[1]; [15],+20.9%
same,IR (%),[1]; [15],37%
"COc1cc(C(=O)c2ccc(-c3csc(NC(=O)CN)n3)cc2-n2cncn2)cc(OC)c1OC [Compound 615, N-(4-(3-(1H-1,2,4-triazol-1-yl)-4-(3,4,5-trimethoxybenzoyl)phenyl)thiazol-2-yl)-2-aminoacetamide]",solubility,[2],23.3 mg/mL
"COc1cc(C(=O)c2ccc(-c3csc(NC(=O)[C@@H](N)CC(C)C)n3)cc2-n2cncn2)cc(OC)c1OC [Compound 647, (S)—N-(4-(3-(1H-1,2,4-triazol-1-yl)-4-(3,4,5-trimethoxybenzoyl)phenyl)thiazol-2-yl)-2-amino-4-methylpentanamide]",solubility,[2],12.1 mg/mL
"COc1cc(C(=O)c2ccc(-c3csc(NC(=O)[C@@H](N)C(C)C)n3)cc2-n2cncn2)cc(OC)c1OC [Compound 624, (S)—N-(4-(3-(1H-1,2,4-triazol-1-yl)-4-(3,4,5-trimethoxybenzoyl)phenyl)thiazol-2-yl)-2-amino-3-methylbutanamide]",pharmaceutical effects as compared with the reference drug,"[3]; calu-6 xenograft model, in words",significantly superior pharmaceutical effects
same,Body weight change (%),[3]; [16],+26.2%
same,IR (%),[3]; [16],41%
same,Body weight change (%),[3]; [17],+26.0%
same,IR (%),[3]; [17],73%
same,Body weight change (%),[3]; [18],+20.6%
same,IR (%),[3]; [18],82%
same,pharmaceutical effects as compared with the reference drug,"[4]; MKN45 xenograft model, in words",significantly superior pharmaceutical effects
same,Body weight change (%),[4]; [19],−11.8%
same,IR (%),[4]; [19],21%
same,Body weight change (%),[4]; [20],+2.9%
same,IR (%),[4]; [20],46%
same,Body weight change (%),[4]; [21],+4.3%
same,IR (%),[4]; [21],68%
same,Body weight change (%),[5]; 5 mg/kg,+1.8%
same,IR (%),[5]; 5 mg/kg,12%
same,Body weight change (%),[5]; 7.5 mg/kg,+3.2%
same,IR (%),[5]; 7.5 mg/kg,63%
same,Body weight change (%),[5]; 10 mg/kg,+6.6%
same,IR (%),[5]; 10 mg/kg,69%
same,weight loss,[1],no weight loss
same,animal death,[1],no animal death
same,"pharmaceutical effects as compared to the reference drug, AC7700",[1],significantly superior pharmaceutical effects
same,Body weight change (%),[1]; [7],+25.7%
same,IR (%),[1]; [7],28%
same,Body weight change (%),[1]; [8],+14.7%
same,IR (%),[1]; [8],64%
same,solubility,[2],14.9 mg/mL
same,pharmaceutical effects as compared with the reference drug,"[6]; A549 xenograft model, in words",significantly superior pharmaceutical effects
same,Body weight change (%),[6]; [22],−1.7%
same,IR (%),[6]; [22],39%
same,Body weight change (%),[6]; [23],+1.7%
same,IR (%),[6]; [23],61%
same,Body weight change (%),[6]; [24],−1.2%
same,IR (%),[6]; [24],71%
